For series [1], the system named is rats with scopolamine-induced deficits. In words: Passive avoidance in rats, scopolamine-induced amnesia. Type of series: in vivo, rat. Here is the method:
The protocol summarized below is one of many variants of the passive avoidance procedure using scopolamine-induced amnesia (for review see Rush, Behav Neural Biol 50:255-274, 1988). This procedure is commonly used to identify drugs that may be useful in treating cognitive deficits, particularly those observed in AD. The effects of the D
Testing was conducted in standard 2-compartment rectangular passive avoidance chambers (San Diego Instruments, San Diego, Calif.) with black plexiglas sides and grid floors. The light compartment of the chambers were illuminated by a 20 W lamp located in this compartment; the dark side of the chambers will be shielded from light, except for light penetrating the opening connecting the two compartments of each chamber.
On training day, groups of 8 rats were injected with scopolamine (3.0 mg/kg, ip) or vehicle (1.0 ml/kg) 30 min prior to training. Scopolamine served as the dementing agent in this experiment. Ten min prior to training, each group of rats received a second injection of vehicle or a dose of DHX. At the end of the pretreatment interval, each rat was placed individually in the light compartment facing away from the opening between compartments. The latency for each rat to travel from the light to the dark compartment was measured up to a maximum of 300 sec; any animal not entering the dark compartment within 300 sec was discarded from the test group. Once the animal entered the dark compartment completely, a 1.0 milliampere, 3.0 sec scrambled shock was delivered to the entire grid floor. The animal was allowed to remain in the dark compartment during this 3.0 sec period or to escape to the light compartment. Each rat was then returned immediately to its home cage.
Twenty-four hr after training, each rat was tested in the same apparatus for retention of the task (to remain passively in the light compartment). […] The latency for animals to enter the dark compartment on test day (step-through latency) was recorded up to a maximum of 600 sec. Each animal was used only once in a single experiment.
A one-way analysis of variance (ANOVA) and Newman-Keuls post-hoc comparisons were used to identify significant deficits in passive avoidance responding produced by scopolamine and their reversal by DHX; a p value of less than 0.05 was used as the level of significance.

The next series deals with T1, D1A receptor (C-6-mD1A) (Macaca mulatta, UniProt O77680).
T1 construct: expressed in transfected cells; host or cells: C-6 glioma cells
T1 sequence (O77680 whole entry): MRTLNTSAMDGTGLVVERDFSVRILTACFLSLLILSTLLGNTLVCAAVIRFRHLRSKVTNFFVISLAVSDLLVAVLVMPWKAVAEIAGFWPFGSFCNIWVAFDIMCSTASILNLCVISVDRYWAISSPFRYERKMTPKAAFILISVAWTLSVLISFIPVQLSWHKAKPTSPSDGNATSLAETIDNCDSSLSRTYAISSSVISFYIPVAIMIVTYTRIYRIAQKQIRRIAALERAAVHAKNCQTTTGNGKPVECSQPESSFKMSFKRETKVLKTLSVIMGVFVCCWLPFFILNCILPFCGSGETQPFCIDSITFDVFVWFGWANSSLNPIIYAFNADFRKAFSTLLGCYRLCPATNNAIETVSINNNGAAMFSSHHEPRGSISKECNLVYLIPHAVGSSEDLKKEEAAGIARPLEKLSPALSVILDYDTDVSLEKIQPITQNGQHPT
Put plainly: Binding, cloned D1A receptor in C-6 cells. Further details: species or system monkey (rhesus macaque). The conditions noted are these: monkey receptor, read-out: Cloned Receptors D1A C-6 (monkey).

For series [2], the target named is 40 binding sites (other than the D1 site). Put plainly: Screen for activity at 40 binding sites. The conditions noted are these: 40 binding sites other than D1, all except D2 and alpha2 adrenergic; read-out: IC50 at binding sites found inactive. The text has this:
(§1) […]. […] […].

Series [3] addresses alpha2 adrenergic receptors. Put plainly: Binding site screen, alpha2 adrenergic receptors.
From the text: as §1

The subject of the next series is adenylate cyclase. In words: Stimulation of adenylate cyclase in brain tissue. Type of series: biochemical. The conditions noted are these: rat, monkey, and human brain tissue.
From the text: as §1

Series [4] has as its system dopamine release or reuptake. In words: Dopamine release and reuptake.
From the text: as §1

The nature of series [5]: Half-life and duration of functional activity. Type of series: in vivo.
For series [6], the system named is acetylcholine release in striatum and frontal cortex. In words: Acetylcholine release by in vivo microdialysis in conscious, freely-moving rats. Further details: species or system rat.
A further series has as its system MPTP-treated monkeys. Put plainly: Cognitive deficits in chronic low dose MPTP-treated monkeys, delayed response task. Type of series: in vivo, monkey. The text has this:
Two adult male Macaca fascicularis monkeys (4.7 and 5.7 kg initial body weight) and 1 female Macaca nemistrina monkey (5.0 kg initial body weight) were trained to perform a delayed response task. Briefly, animals were trained and tested on delayed response while seated in a restraining chair placed inside a sound attenuating modified Wisconsin General Test Apparatus. The monkey sat behind an opaque screen that when raised, allowed access to a sliding tray that contained recessed food wells with identical sliding white Plexiglas covers that served as stimulus plaques that could be displaced by the animal to obtain rewards (e.g. raisins). Monkeys were trained to retrieve a raisin from one of the food wells after observing the experimenter bait the well. […]
Training was accomplished with a non-correction procedure, beginning with a 0 s delay and progressing to a 5 s delay. […] A response was scored a “mistake” if the monkey made its response choice to a well that was not baited with reward. […]
Compounds and/or compositions described herein are tested by dissolving in physiological saline containing 0.2% ascorbate and administering subcutaneously. Ilustratively, compounds and/or compositions described herein are used at 0.3, 0.6, and 0.9 mg/kg doses, calculated as the free base where appropriate. The order of dose administration is determined randomly. […]

A short description of series [7]: Pharmacokinetic studies in rodents and non-human primates. Type of series: in vivo. The text has this: […]. […] […]
The subject of a further series is monkeys. The conditions noted are these: young, intact monkeys; cited from earlier work.
In another series the target is D3 receptor (Rattus norvegicus, UniProt P19020). In words: biochemical.
Sequence of D3 receptor (P19020 whole entry): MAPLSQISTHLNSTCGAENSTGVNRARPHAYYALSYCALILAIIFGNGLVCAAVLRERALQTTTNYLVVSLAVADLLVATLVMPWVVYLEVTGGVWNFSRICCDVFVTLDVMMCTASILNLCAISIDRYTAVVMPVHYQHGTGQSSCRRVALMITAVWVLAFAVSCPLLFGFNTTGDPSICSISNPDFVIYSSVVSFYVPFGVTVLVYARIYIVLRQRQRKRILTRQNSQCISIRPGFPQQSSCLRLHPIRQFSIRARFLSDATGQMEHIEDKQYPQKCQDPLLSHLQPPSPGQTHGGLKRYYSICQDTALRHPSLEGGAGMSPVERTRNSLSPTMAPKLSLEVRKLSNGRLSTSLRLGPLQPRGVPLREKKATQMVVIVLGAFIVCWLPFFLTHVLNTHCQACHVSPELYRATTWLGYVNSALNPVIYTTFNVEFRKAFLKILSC
For the next series, the target named is T2, D4 receptor (Rattus norvegicus, UniProt P30729).
T2 sequence (P30729 1-387): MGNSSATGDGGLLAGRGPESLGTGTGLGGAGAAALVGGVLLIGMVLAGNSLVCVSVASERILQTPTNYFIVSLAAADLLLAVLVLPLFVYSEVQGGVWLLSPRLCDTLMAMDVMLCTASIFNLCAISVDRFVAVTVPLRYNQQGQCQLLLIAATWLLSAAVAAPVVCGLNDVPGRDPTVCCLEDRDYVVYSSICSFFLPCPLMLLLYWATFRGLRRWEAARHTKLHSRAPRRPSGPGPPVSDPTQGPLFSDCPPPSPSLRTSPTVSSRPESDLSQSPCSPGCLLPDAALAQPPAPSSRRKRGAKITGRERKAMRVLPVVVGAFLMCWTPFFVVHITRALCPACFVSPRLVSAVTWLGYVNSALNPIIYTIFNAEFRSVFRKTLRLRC
In words: Binding, cloned D4 receptor in CHO cells. Further details: expressed in transfected cells; host or cells: CHO cells. The conditions noted are these: read-out: Cloned Receptors D4 CHO (rat).

Some results are limits rather than exact numbers.

Procedure for D1A receptor (C-6-mD1A): Cells were grown in DMEM-H medium containing 4,500 mg/l glucose, L-glutamine, 5% fetal bovine serum and 600 ng/ml G418. […] Cells were plated into 24-well plates and allowed to grow to confluence (usually 2-4 days), after which they were used for either dose-response or desensitization studies. For the binding studies, 75-cm^2 flasks of confluent cells were treated as described below. All studies (functional and receptor binding) used cells from passages 2 to 20.
Flasks of cells in the same passage were rinsed with 5 ml hypoosmotic buffer (1 mM HEPES, 2 mM EGTA, pH 7.4), and then incubated with 7 ml hypoosmotic buffer for 5 to 10 min at 4° C. Cells were then scraped off the bottom of the flask with a rubber policeman, collected into 50-ml tubes and centrifuged at 28,000×g at 4° C. for 20 min. […] Aliquots contained approximately 1 mg/ml of protein, as measured with the BCA protein assay reagent (Pierce, Rockford, Ill.). […]
For dose-response studies, data were calculated for each sample and expressed initially as pmol cAMP per mg protein per min. […] Normalized dose-response curves were analyzed by nonlinear regression with an algorithm for sigmoid curves in the curve-fitting program Prism (Graphpad Inc., San Diego, Calif.). […] For competition binding studies, the raw data (expressed in dpm) were analyzed by nonlinear regression with a sigmoid dose-response model in Prism. […]

`Cl.Oc1cc2c(cc1O)[C@@H]1c3ccccc3CN[C@H]1CC2` (relative stereo) [Compound 6a, Trans-10,11-dihydroxy-5,6,6a,7,8,12b-hexahydrobenzo[a]phenanthridine hydrochloride]: the “Shape of dose-response curve in passive avoidance” value in [1] is given as “inverted U-shaped dose-response curve”. For the same compound, the “Scopolamine-induced deficits in step-through latency” value in series [1] (dose of 0.3 mg/kg, scopolamine 3.0 mg/kg ip) is on record as “significantly improved”. The “Increase in step-through latency” value in series [1] (doses of 0.1 and 1.0 mg/kg, scopolamine 3.0 mg/kg ip) is listed as “not statistically-significant”. Also, in series [1] (narrow range of doses (0.1, 0.3, and 1.0 mg/kg ip)), the “Deficits induced by scopolamine” value is given as “significantly improved”. Further, the Ki came to 2.2 nM on D1A receptor (C-6-mD1A), 18 nM on D3 receptor and 13 nM on D4 receptor. The figures for the IC50 in [2] and in [3] were greater than 10000 nM and roughly 230 nM, respectively. Moreover, the “Efficacy in stimulating adenylate cyclase in brain tissue” value in the series on adenylate cyclase is “full efficacy”. The “Releasing dopamine or blocking its reuptake” value in series [4] was “inactive”. Moreover, in series [5] (given subcutaneously), the Functional half-life result is reported as “about 3 hr”. For the same compound, the half-life (as a rule, how long it takes for the measured level to halve) in series [5] (in vivo, iv, given intravenously, read-out: Half-life) was roughly 30 min. For the same compound, in series [6], the Acetylcholine release entry is on record as “dose-related increases”. Moreover, the “Cognitive deficits produced by chronic low dose MPTP treatment” value in the series on MPTP-treated monkeys is “improve cognitive deficits”. For the same compound, the Clearance from plasma result in series [7] (in vivo) is reported as “cleared rapidly”. The Blood levels entry in series [7] (rodents and non-human primates, following iv, sc and po administration) is on record as “significant blood levels”. For the same compound, in the series with monkeys, the Spatial working memory result is given as “produced improvements”.

(Values after US20070155720A1, “Co-administration of dopamine-receptor binding compounds” (DarPharma, Inc., priority 2003, published 2007).)
